Data: patent publication US6737057B1, “Compounds, compositions and methods for the endocytic presentation of immunosuppressive factors” (The University of Tennessee Research Corporation, priority 1997, dated 2004)
“And” between values parts separate entries of the source, which are not always exact repeats. Equal values may be shown once. “Also recorded” adds a separate entry of the source.

B1: proteolipid protein (protein, UniProt P60203 2-277, looked up)
Myelin proteolipid protein: GLLECCARCLVGAPFASLVATGLCFFGVALFCGCGHEALTGTEKLIETYFSKNYQDYEYLINVIHAFQYVIYGTASFFFLYGALLLAEGFYTTGAVRQIFGDYKTTICGKGLSATVTGGQKGRGSRGQHQAHSLERVCHCLGKWLGHPDKFVGITYALTVVWLLVFACSAVPVYIYFNTWTTCQSIAFPSKTSASIGSLCADARMYGVLPWNAFPGKVCGSNLLSICKTAEFQMTFHLFIAAFVGAAATLVSLLTFMIAATYNFAVLKLMGRGTKF
notes: native proteolipid protein purified from rat brain

Key:
[1] = test system: PLP1-specific T cell hybridoma 4E3; assay: T cell hybridoma activation assay (IL-2 production), 4E3; type: cell-based, mouse; settings: for IL-2 production by T cell hybridoma 4E3: SJL splenocyte APCs, 0.1 μM Ig chimeras, 1 μM peptides, 1.7 μM PLP, FIG. 3A; for EC50: 4E3 hybridoma, irradiated SJL/J splenocytes, IL-2 by HT-2 3H-thymidine incorporation, FIG. 4, read-out: stimulation to half the maximum level
Procedure: (§1) PLP1-specific T cell hybridomas 5B6 and 4E3 and the IL-2 dependent HT-2 T helper cells were obtained from The Eunice Kennedy Shriver Center, Waltham, Mass. The 5B6 and 4E3 T cells recognize the peptide PLP1 in association with 1-A^S class II MHC and produces IL-2 when incubated with it as reported by Kuchroo et al., J. Immunol. 153:3326-3336, 1994 which is incorporated herein by reference. Conversely, Kuchroo et al. report that when stimulated with PLP1 and then with PLP-LR both 5B6 and 4E3 cells no longer produce IL-2.
(§2) Using substantially the same technique as Kuchroo et al., activation of the T cell hybridomas for various agonists was performed as follows. Irradiated (3,000 rads) splenocytes from SJL mice were used as antigen presenting cells (APCs) for this Example. The irradiated splenocytes were incubated in 96-well round bottom plates (5×10^5 cells/well/50 μl) with graded concentrations of antigens (100 μl/well). After one hour, T cell hybridomas, i.e. 5B6 of 4E3 (5×10^4 cells/well/50 μl) were added and the culture was continued overnight. Activation (or proliferation) of the T cells was assessed by measuring production of IL-2 in the culture supernatant. This was done by ^3H-thymidine incorporation using the IL-2 dependent HT-2 cells. That is, when IL-2 is present (i.e. secreted by activated T cells) the HT-2 cells proliferate, incorporating labeled thymidine from the surrounding media.
(§3) The culture media used to carry out these assays was DMEM supplemented with 10% FBS, 0.05 mM 2-mercaptoethenol, 2 mM glutamine, 1 mM sodium puryvate and 50 μg/mL gentamycin sulfate. Briefly, culture supernatants (100 μl/well) were incubated with HT-2 cells (1×10^4 cells/well/100 μl) in 96-well flat bottom plates for 24 hours. Subsequently 1 μCi ^3H-thymidine was added per well and the culture was continued for an additional 12-14 hours. The cells were then harvested on glass fiber filters and the non incorporated ^3H-thymidine was washed away. Incorporated thymidine was then counted using the trace 96 program and an Inotech β counter. It will be appreciated that those wells containing higher levels of IL-2 (secreted by the activated T cell hybridoma lines) will induce higher levels of HT-2 cell proliferation and register increased levels of ^3H-thymidine incorporation.
Specifically, different concentrations of the three antigens (i.e. agonists) were incubated with irradiated SJL/J splenocytes which were subsequently associated with 4E3 T cell hybridomas. IL-2 production was measured by ^3H-thymidine incorporation using the IL-2 dependent HT-2 cells as described in Example VI. Each point represents the mean of triplicates.

[2] = test system: PLP1-specific T cell hybridoma 5B6; assay: T cell hybridoma activation assay (IL-2 production), 5B6; type: cell-based, mouse; settings: SJL splenocyte APCs; 0.1 μM Ig chimeras, 1 μM peptides, 1.7 μM PLP; FIG. 3B
Procedure: as §1, §2, §3

4E3 T cell hybridomas = assay: Prepulsed proliferation assay: antagonism of agonist mediated T cell activation; type: cell-based, mouse; parameters: key to T cell antagonism, Stimulator (Agonist) PLP1 / T cell antagonism, Stimulator (Agonist) PLP / T cell antagonism, Stimulator (Agonist) Ig-PLP1: +: a plus sign indicates inhibition of IL-2 production and therefore antagonism; −: a minus sign indicates little or no inhibition of IL-2 production and therefore little or no antagonism; settings: for antagonism of Ig-PLP1 mediated T cell activation (IL-2 production): agonist 0.05 μM Ig-PLP1, FIG. 5B; for control thymidine incorporation (agonist, no antagonist): 1 μM PLP1 peptide, 0.05 μM Ig-PLP1 or 7 μM PLP, background not deducted
Procedure: Irradiated (3,000 rads) SJL splenocytes (used as APCs) were incubated in 96-well round bottom plates (5×10^5 cells/well/50 μl) with the selected agonist (1 μM PLP1 peptide, 0.05 μM Ig-PLP1 or 7 μM PLP) and various concentrations of antagonist (100 μl/well) for 1 hour. Subsequently, 4E3 T cell hybridomas (5×10^4 cells/well/50 μl) were added and the culture was continued overnight. IL-2 production in the supernatant, determined as in Example VI using HT-2 cells, was used as measure of T cell activation.
Cpm values obtained when the APCs were incubated with the agonist but no antagonist was used as control thymidine incorporation. This value was 7,503±1,302 for Ig-PLP1; 31,089±3,860 for PLP1 peptide; and 8,268±915 for PLP. The cpm value obtained when the APCs were incubated with no agonist or antagonist was used as background (BG). This value was 1,560±323 for Ig-PLP1; 2,574±290 for PLP1 peptide; and 2,127±177 for PLP. The percent control thymidine incorporation was calculated as follows: [(cpm obtained in the presence of test antagonist)−(BG)]/[(cpm control thymidine incorporation value)−(BG)]. Each point represents the mean of triplicates.

I-A^S class II molecules = target: T1, I-A^S class II molecules (Mus musculus, UniProt P06345+P14437); settings: cited from earlier work
T1 sequence (P14437 1-233): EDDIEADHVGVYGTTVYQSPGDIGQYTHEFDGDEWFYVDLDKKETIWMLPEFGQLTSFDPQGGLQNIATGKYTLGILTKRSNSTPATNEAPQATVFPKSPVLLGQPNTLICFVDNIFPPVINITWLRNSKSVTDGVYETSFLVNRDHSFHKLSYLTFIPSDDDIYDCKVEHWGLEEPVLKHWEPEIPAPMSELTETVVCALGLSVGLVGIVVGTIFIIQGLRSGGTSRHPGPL
T1 sequence (P06345 28-263): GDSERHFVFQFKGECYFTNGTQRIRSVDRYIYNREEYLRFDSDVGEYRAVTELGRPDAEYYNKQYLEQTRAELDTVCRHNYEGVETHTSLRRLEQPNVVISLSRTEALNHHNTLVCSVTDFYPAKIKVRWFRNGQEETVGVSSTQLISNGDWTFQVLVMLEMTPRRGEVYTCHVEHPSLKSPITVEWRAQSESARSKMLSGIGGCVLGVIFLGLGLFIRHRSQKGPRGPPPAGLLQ

SJL mice = settings: cited from earlier work
PLP1 specific T cells = assay: In vivo inhibition of T cell response to PLP1 on co-administration with Ig-PLP1; parameters: species or system SJL mice
Procedure: Mice were co-immunized with mixtures of either 50 μg Ig-PLP1 and 150 μg Ig-PLP-LR or 50 μg Ig-PLP1 combined with 150 μg Ig-W. In particular, individual mice from three groups (4 mice per group) were injected sc, as in Example X with a 200 μl mixture (PBS/CFA, 1:1 v/v) containing one of the following mixtures: 50 μg Ig-PLP1 and 150 μg Ig-PLP-LR; 50 μg Ig-PLP1 and 150 μg Ig-W; or Ig-PLP1 and 100 μg PLP-LR peptide. Splenic and lymph node T cell responses were analyzed at day 10 post immunization using the protocol set forth in Example X. The lymph node cells were assayed at 4×10^5 cells/well and the spleen cells at 10×10^5 cells/well. The agonist ligand was PLP1 at 15 μg/mL. Results for the lymph node and spleen cells, shown in FIGS. 8A and 8B respectively and summarized in Table 2 below, represent the mean±SD of triplicates after deduction of background cpm obtained with no agonist in the media.
(mean cpm of triplicates obtained with PLP1 stimulation−mean cpm triplicate BG)/(mean cpm of triplicates obtained with PPD−mean cpm triplicate BG)×100

PLP-LR specific T cells = assay: In vivo T cell response to PLP-LR after co-administration with Ig-PLP1; parameters: species or system SJL mice; settings: co-administered with Ig-PLP1; lymph node and spleen cells, PLP-LR 15 μg/mL; FIG. 9
Procedure: Lymph node and spleen cells were obtained in the same manner as set forth in Example X following co-administration of Ig-PLP1 and Ig-PLP-LR. Proliferative responses in individual mice were also measured using the methods set out in the previous Example following in vitro stimulation with either free PLP1 peptide or PLP-LR peptide at 15 μg/mL. The results of the assays using lymph node and spleen cells are detailed in FIGS. 9A and 9B respectively.

T cell hybridomas = settings: reported by Kuchroo et al.; cited from earlier work

Row | Molecule | IL-2 production by T cell hybridoma 4E3 [1] | IL-2 production by T cell hybridoma 5B6 [2] | antagonism of Ig-PLP1 mediated T cell activation (IL-2 production) (4E3 T cell hybridomas) | antagonism of PLP1 peptide mediated T cell activation (IL-2 production) (4E3 T cell hybridomas; agonist 1 μM PLP1 peptide, FIG. 5A) | binding to I-A^S class II molecules (I-A^S class II molecules) | encephalitogenic activity / EAE induction (SJL mice) | IC50 (4E3 T cell hybridomas; agonist 1 μM PLP1 peptide, FIG. 5A, read-out: Inhibition of IL-2 production to half the maximum level (60% control thymidine incorporation)) [nM] | antagonism of native PLP mediated T cell activation (IL-2 production) (4E3 T cell hybridomas; agonist 7 μM PLP, FIG. 5C) | T cell antagonism, Stimulator (Agonist) Ig-PLP1 (4E3 T cell hybridomas; agonist Ig-PLP1, summary of FIG. 5) | T cell antagonism, Stimulator (Agonist) PLP1 (4E3 T cell hybridomas; agonist PLP1, summary of FIG. 5) | T cell antagonism, Stimulator (Agonist) PLP (4E3 T cell hybridomas; agonist PLP, summary of FIG. 5) | PLP1/PPD (%) (PLP1 specific T cells; co-administered sc with 50 μg Ig-PLP1 (150 μg Ig or 100 μg peptide), day 10, individual mice 1-4, PLP1 specific relative to PPD specific proliferation, listed as PLP-LR peptide) | reduction of immune response to PLP1 peptide (PLP1 specific T cells; co-administered with Ig-PLP1, lymph node and spleen cells, FIG. 8) | T cell response to PLP-LR (PLP-LR specific T cells) | effect on IL-2 production of T cell hybridomas stimulated with PLP1 (T cell hybridomas) | EC50 [1] [nM] | control thymidine incorporation (agonist, no antagonist) (4E3 T cell hybridomas)
1 | NTWTTCQSIAFPSK [PLP2, a peptide fragment of PLP comprising aa residues 178-191] | did not induce the production of IL-2 | did not induce the production of IL-2 | did not show any significant antagonism | antagonist effects were not observed | binds | induces EAE |  |  |  |  |  |  |  |  |  |  | 
2 | HSLGKLLGRPNKF [PLP-LR, analog of PLP1 in which Trp144 and His147 were replaced with Leu and Arg] | did not stimulate 5B6 and 4E3 to produce significant levels of IL-2 | did not stimulate 5B6 and 4E3 to produce significant levels of IL-2 | did not show any significant antagonism; also recorded: failed to inhibit T cell activation |  | bind well |  | 9000 | failed to inhibit T cell activation | − | + | − | 93% and 100% and 81% and 91% | no indication that the PLP1 response was reduced; also recorded: no evident reduction in the proliferative response to PLP1 | induction of PLP-LR-specific response | inhibits IL-2 production |  | 
3 | HSLGKWLGHPNKF [PLP1, a peptide fragment of PLP comprising aa residues 139-151] | substantial levels of IL-2 | substantial levels of IL-2 |  |  | bind well | encephalitogenic |  |  |  |  |  |  |  |  |  | 600 | 31,089±3,860 cpm
4 | B1 | substantial levels of IL-2 | substantial levels of IL-2 |  |  |  |  |  |  |  |  |  |  |  |  |  | 500 | 8,268±915 cpm
